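How tested: cells in 96-well plates exposed to compound for 48 hours at five concentrations. GI50 = concentration required for 50% inhibition of growth.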 Activity calls are given as the source filed them. Cut-off read from the data, not from the text of the source: active = GI50 up to about 1.1 µM and inactive = higher.
Experiments:
Experiment in all cases: growth of human tumour cells (NCI), 48 h
[1] = system: HL-60
[2] = system: HCC 2998
[3] = system: RPMI-8226
[4] = system: COLO 205
[5] = system: IGROV-1
[6] = system: OVCAR-4
[7] = system: Malme-3M
[8] = system: U-251
[9] = system: SK-MEL-5
[10] = system: ACHN
[11] = system: M14
[12] = system: UACC-257
[13] = system: SNB-19
[14] = system: A549
[15] = system: SF-295
[16] = system: Hs-578T
[17] = system: PC-3
[18] = system: MDA-MB-435
[19] = system: BT-549
[20] = system: T47D

| Structure (SMILES) | GI50 [1] | GI50 [2] | GI50 [3] | GI50 [4] | GI50 [5] | GI50 [6] | GI50 [7] | GI50 [8] | GI50 [9] | GI50 [10] | GI50 [11] | GI50 [12] | GI50 [13] | GI50 [14] | GI50 [15] | GI50 [16] | GI50 [17] | GI50 [18] | GI50 [19] | GI50 [20] |
| --- | --- | --- | --- | --- | --- | --- | --- | --- | --- | --- | --- | --- | --- | --- | --- | --- | --- | --- | --- | --- |
| N=S(c1ccccc1)c1ccccc1[N+](=O)[O-] (stereo not given) | 12.9 µM (inactive) | 19.1 µM (inactive) | 18.2 µM (inactive) | 19.8 µM (inactive) | 18.1 µM (inactive) | 14.8 µM (inactive) | 15.1 µM (inactive) | 17.4 µM (inactive) | 15 µM (inactive) | 17.3 µM (inactive) | 14.4 µM (inactive) | 18.1 µM (inactive) | 18.5 µM (inactive) | 16.7 µM (inactive) | 18.8 µM (inactive) | – | – | – | – | – |
| Cc1cc(C)n2nc3nc(N)c(C#N)c(-c4ccccc4)c3c2n1 | > 100 µM (inactive) | > 100 µM (inactive) | > 100 µM (inactive) | > 100 µM (inactive) | > 100 µM (inactive) | > 100 µM (inactive) | > 100 µM (inactive) | > 100 µM (inactive) | > 80.2 µM (inactive) | > 100 µM (inactive) | > 100 µM (inactive) | > 100 µM (inactive) | > 100 µM (inactive) | > 100 µM (inactive) | > 100 µM (inactive) | > 100 µM (inactive) | > 100 µM (inactive) | > 100 µM (inactive) | > 100 µM (inactive) | – |
| O=C(CSc1nc2ccc(I)cc2c(=O)n1Cc1ccccc1)N/N=C/c1ccccc1 | > 100 µM (inactive) | 67.1 µM (inactive) | 82.4 µM (inactive) | > 100 µM (inactive) | 14.8 µM (inactive) | 34.2 µM (inactive) | – | 11.4 µM (inactive) | 42.4 µM (inactive) | 21.7 µM (inactive) | 43.3 µM (inactive) | 26.3 µM (inactive) | 17.5 µM (inactive) | 25.2 µM (inactive) | 11.4 µM (inactive) | 1.01 µM (active) | 10.3 µM (inactive) | > 100 µM (inactive) | – | 23.1 µM (inactive) |
| CCO/C=C(\C(=O)OC)S(=O)(=O)c1ccc(C)cc1 | 0.0596 µM (active) | > 100 µM (inactive) | > 100 µM (inactive) | > 100 µM (inactive) | > 100 µM (inactive) | > 100 µM (inactive) | > 100 µM (inactive) | > 100 µM (inactive) | > 100 µM (inactive) | > 100 µM (inactive) | > 100 µM (inactive) | > 100 µM (inactive) | > 100 µM (inactive) | > 100 µM (inactive) | > 100 µM (inactive) | > 100 µM (inactive) | > 100 µM (inactive) | > 100 µM (inactive) | – | > 100 µM (inactive) |
| COc1cc(/C=C2\Sc3scc(-c4cccc([N+](=O)[O-])c4)[n+]3C2=O)cc(OC)c1OC | 36.7 µM (inactive) | 14.5 µM (inactive) | 4.06 µM (inactive) | 3.87 µM (inactive) | 14 µM (inactive) | 15.3 µM (inactive) | 13.8 µM (inactive) | 11.6 µM (inactive) | 6.1 µM (inactive) | 14.9 µM (inactive) | 11.7 µM (inactive) | 12.5 µM (inactive) | 16.7 µM (inactive) | 19.2 µM (inactive) | 16.3 µM (inactive) | 10.8 µM (inactive) | 21.4 µM (inactive) | 12.6 µM (inactive) | – | 5.56 µM (inactive) |
| N#Cc1c(/C=C/c2ccccc2)c2c([nH]c1=S)CCCCC2 | > 100 µM (inactive) | > 100 µM (inactive) | > 100 µM (inactive) | > 100 µM (inactive) | > 100 µM (inactive) | > 100 µM (inactive) | > 100 µM (inactive) | 82.2 µM (inactive) | > 100 µM (inactive) | > 100 µM (inactive) | > 100 µM (inactive) | > 100 µM (inactive) | > 100 µM (inactive) | > 100 µM (inactive) | > 100 µM (inactive) | > 100 µM (inactive) | > 100 µM (inactive) | > 100 µM (inactive) | – | > 100 µM (inactive) |
| Oc1ccc(O)c(Sc2nnc(CCCCCCCCc3nnc(Sc4cc(O)ccc4O)o3)o2)c1 | – | 75.5 µM (inactive) | 23.1 µM (inactive) | 48.3 µM (inactive) | 96.8 µM (inactive) | 33.1 µM (inactive) | 57.3 µM (inactive) | 71.6 µM (inactive) | > 100 µM (inactive) | 28.1 µM (inactive) | > 100 µM (inactive) | > 100 µM (inactive) | > 100 µM (inactive) | > 100 µM (inactive) | > 100 µM (inactive) | – | > 100 µM (inactive) | 18.2 µM (inactive) | 74.8 µM (inactive) | – |
| C=CC1(c2ccc(OC)cc2)OCCCO1 | > 100 µM (inactive) | > 100 µM (inactive) | > 100 µM (inactive) | > 100 µM (inactive) | > 100 µM (inactive) | > 100 µM (inactive) | > 100 µM (inactive) | > 100 µM (inactive) | > 100 µM (inactive) | > 100 µM (inactive) | > 100 µM (inactive) | > 100 µM (inactive) | > 100 µM (inactive) | > 100 µM (inactive) | > 100 µM (inactive) | > 100 µM (inactive) | > 100 µM (inactive) | > 100 µM (inactive) | – | > 100 µM (inactive) |
